{"source": "patent US4588587A", "about": "“Method of treatment to inhibit metastasis” (Pennsylvania Hospital, priority 1983, dated 1986)", "tested_on": "T241 sarcoma cells", "assay": "Lung and mediastinal tumor colonization after intravenous injection of T241 sarcoma cells", "assay_type": "in vivo, mice", "experimental": "Sarcoma T241 (12), a dimethylbenzanthracene-induced tumor originally derived from a C57BL/6 mouse, was maintained as ascitic tumor in syngeneic C57BL/6 mice or B6AF1 compatible hybrids (Jackson Laboratory, Bar Harbor, Me.). The capacity of the cells of this tumor to induce platelet aggregation and coagulation was assayed in a conventional manner. […] The tumor cells, however, did display a moderate procoagulant activity as reflected by a shortened recalcified clotting time. The addition of 10^6 T241 cells to syngeneic citrated plasma reduced the clotting time to between 1/3 and 1/2 control levels. Another known property of these cells is the capacity to degrade type IV collagen.\nLung tumor colonies were induced by the intravenous injection of T241 sarcoma cells. One week-old ascitic tumor cells were separated by centrifugation (100 g for 10 min) at 4° C., washed twice with Hanks' solution and suspended in the same medium (125,000-250,000 cells per ml). The suspension contained monodispersed cells of high viability (95%). Two tenths of one ml of the suspension containing 25,000 or 50,000 cells were injected intravenously into male or female C57BL/6 mice (about 25 g), and into B6AF1 mice (25-30 g), respectively, the animals housed under identical conditions of temperature, photoperiodicity, and feeding, were killed 20 days later and the number of metastases counted with a Bausch & Lomb dissecting microscope.\nTwo tenths of one ml of extract or semipurified fractions (100-400 ug of protein) were injected intravenously through the tail vein two hours before and two and four hours after receiving the tumor cell inoculation. Controls were similarly injected, but with 20 mM Hepes, 10 mM CaCl2, pH 7.8 aqueous solution. Additional controls were treated with either one intravenous injection of 15 units of heparin (Elkins-Sinn, Cherry Hill, N.J.) or 2 units of Bothrops atrox venom (Atroxin, Sigma, St. Louis, Mo.) in 0.2 ml of saline given 1 hour before tumor inoculation.", "key": {"[1]": {"details": "C57BL/6J mice, T241 cells i.v., killed 20 days later"}}, "data": [{"substance": "heparin", "values": [{"measurement": "Percentage of Mice with Tumors, Lung", "setting": "[1]", "value": 100, "unit": "Percentage"}, {"measurement": "Percentage of Mice with Tumors, Mediastinal", "setting": "[1]", "value": 80, "unit": "Percentage"}, {"measurement": "Lung Tumors per Mouse, Median", "setting": "C57BL/6J mice, excluding mice without lung tumors", "value": 5}, {"measurement": "Diameter of Lung Tumors", "setting": "C57BL/6J mice, mean and S.E.M., excluding mice without lung tumors", "value": "2.2 ± 0.1", "unit": "mm"}, {"measurement": "antimetastatic effect on lung and mediastinal tumors (in words)", "setting": "T241 sarcoma cells i.v. in mice", "value": "reduced only slightly"}, {"measurement": "antimetastatic effect at much higher doses given more frequently", "setting": "compared with the extract", "value": "could not be reproduced"}]}]}
